The source made the active and inactive calls. No cut-off for these calls is given here.
Experiments:
SH-SY5Y [1] = test: Neuroprotection against rotenone/oligomycin-A-indced human SH-SY5Y cell death assessed as protective effect at 1 uM after 2 hrs by MTT assay; assay type: functional
Acetylcholinesterase [2] = molecular target: T1, Acetylcholinesterase (Bos taurus, UniProt P23795)
T1 sequence (P23795 whole entry): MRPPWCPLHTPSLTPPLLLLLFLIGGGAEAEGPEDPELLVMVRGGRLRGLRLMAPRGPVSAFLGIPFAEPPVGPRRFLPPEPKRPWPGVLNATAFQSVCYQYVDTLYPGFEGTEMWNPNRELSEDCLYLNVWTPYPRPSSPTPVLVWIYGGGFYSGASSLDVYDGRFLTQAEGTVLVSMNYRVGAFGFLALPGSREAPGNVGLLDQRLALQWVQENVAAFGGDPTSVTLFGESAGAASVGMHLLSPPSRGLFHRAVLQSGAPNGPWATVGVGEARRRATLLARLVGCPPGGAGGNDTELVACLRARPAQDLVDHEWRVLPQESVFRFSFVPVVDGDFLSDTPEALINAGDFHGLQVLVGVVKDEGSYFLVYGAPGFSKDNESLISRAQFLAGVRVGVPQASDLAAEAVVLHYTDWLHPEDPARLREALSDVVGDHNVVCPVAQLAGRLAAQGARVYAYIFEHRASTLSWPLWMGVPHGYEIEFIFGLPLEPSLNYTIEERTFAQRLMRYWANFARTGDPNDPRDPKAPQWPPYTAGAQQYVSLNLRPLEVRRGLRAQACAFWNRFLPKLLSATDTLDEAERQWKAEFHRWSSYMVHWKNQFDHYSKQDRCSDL
Description: Inhibition of bovine erythrocytes AChE by Ellman's method

Acetylcholinesterase [3] = molecular target: Acetylcholinesterase (Electrophorus electricus, UniProt O42275)
Description: Inhibition of Electrophorus electricus AChE by Ellman's method

Cholinesterase = Cholinesterase (Equus caballus, UniProt P81908)
Description: Inhibition of horse serum BuChE by Ellman's method

[4] = molecular target: Acetylcholinesterase (Homo sapiens) (UniProt P22303); test: Antagonist activity at human nAChR in human SH-SY5Y cells assessed as inhibition of acetylcholine-induced cytosolic Ca2+ signal at 0.3 to 100 uM; assay type: functional, cell-based
SH-SY5Y [5] = test: Neuroprotection against okadaic acid-induced human SH-SY5Y cell death assessed as reduction in LDH release at 0.3 uM relative to control; assay type: functional; design: scale not given: the % may be the effect or the level left
SH-SY5Y [6] = test: Neuroprotection against okadaic acid-induced human SH-SY5Y cell death assessed as reduction in cell death at 0.1 to 1 uM; assay type: functional, cell-based
SH-SY5Y [7] = test: Neuroprotection against okadaic acid-induced human SH-SY5Y cell death assessed as reduction in LDH release at 0.1 to 1 uM relative to control; assay type: functional; design: scale not given: the % may be the effect or the level left
[8] = molecular target: Acetylcholinesterase (Homo sapiens) (UniProt P22303); test: Antagonist activity at human nAChR in human SH-SY5Y cells assessed as inhibition of 70 mM K+ induced cytosolic Ca2+ signal at 0.3 to 100 uM; assay type: functional, cell-based

Chain of Cholinesterase (P81908 whole entry): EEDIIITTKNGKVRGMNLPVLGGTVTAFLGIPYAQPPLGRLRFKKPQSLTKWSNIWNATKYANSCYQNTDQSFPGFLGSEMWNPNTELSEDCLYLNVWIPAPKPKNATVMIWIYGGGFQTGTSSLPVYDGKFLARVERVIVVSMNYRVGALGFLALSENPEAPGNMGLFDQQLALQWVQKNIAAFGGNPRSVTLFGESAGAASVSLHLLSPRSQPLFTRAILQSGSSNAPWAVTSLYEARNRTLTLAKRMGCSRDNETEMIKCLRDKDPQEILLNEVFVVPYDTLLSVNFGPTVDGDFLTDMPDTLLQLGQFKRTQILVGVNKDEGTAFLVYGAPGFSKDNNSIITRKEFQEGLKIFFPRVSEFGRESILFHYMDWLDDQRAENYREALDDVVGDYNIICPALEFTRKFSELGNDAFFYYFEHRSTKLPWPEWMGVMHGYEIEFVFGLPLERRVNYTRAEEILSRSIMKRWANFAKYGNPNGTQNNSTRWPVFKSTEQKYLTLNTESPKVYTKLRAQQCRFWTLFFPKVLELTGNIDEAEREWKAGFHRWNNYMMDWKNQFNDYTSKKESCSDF
Chain of Acetylcholinesterase (Electrophorus electricus, UniProt O42275) (O42275 whole entry): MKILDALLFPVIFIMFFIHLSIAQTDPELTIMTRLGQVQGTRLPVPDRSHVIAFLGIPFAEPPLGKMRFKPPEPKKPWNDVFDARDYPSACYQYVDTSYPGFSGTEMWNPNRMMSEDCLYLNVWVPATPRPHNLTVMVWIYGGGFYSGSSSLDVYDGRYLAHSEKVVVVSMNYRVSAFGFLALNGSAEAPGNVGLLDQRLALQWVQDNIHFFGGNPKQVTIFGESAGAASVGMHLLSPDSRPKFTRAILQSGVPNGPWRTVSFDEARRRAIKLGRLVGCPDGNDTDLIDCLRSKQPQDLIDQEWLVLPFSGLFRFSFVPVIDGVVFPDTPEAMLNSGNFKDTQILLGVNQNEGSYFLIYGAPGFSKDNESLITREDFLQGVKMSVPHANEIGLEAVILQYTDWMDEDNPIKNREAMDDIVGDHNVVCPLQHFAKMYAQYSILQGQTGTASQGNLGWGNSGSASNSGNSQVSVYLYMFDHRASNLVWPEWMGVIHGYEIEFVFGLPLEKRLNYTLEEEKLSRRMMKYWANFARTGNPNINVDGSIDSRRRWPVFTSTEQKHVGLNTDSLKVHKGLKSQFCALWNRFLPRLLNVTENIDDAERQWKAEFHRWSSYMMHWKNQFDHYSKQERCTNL
Chain of Acetylcholinesterase (Homo sapiens) (P22303 whole entry): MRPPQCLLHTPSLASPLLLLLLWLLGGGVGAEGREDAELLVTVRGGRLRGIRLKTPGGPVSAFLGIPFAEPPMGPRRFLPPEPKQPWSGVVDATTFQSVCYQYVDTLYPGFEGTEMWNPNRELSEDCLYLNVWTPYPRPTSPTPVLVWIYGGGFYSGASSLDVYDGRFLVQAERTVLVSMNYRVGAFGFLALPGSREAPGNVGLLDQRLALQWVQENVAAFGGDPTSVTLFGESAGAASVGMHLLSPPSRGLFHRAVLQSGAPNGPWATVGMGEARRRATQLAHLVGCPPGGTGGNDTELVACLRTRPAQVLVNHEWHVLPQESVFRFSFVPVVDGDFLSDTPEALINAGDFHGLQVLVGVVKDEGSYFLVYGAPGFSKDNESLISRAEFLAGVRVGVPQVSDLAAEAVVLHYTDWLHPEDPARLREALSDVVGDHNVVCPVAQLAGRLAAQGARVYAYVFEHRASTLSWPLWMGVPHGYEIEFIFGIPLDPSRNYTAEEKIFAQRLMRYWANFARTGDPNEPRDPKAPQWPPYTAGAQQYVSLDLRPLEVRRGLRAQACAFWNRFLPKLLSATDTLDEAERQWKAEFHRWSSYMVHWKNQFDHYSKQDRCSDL

SMILES	Activity (SH-SY5Y [1])	IC50 (Acetylcholinesterase [2])	IC50 (Acetylcholinesterase [3])	IC50 (Cholinesterase)	inhibition [4]	Activity (SH-SY5Y [5])	Activity (SH-SY5Y [6])	Activity (SH-SY5Y [7])	inhibition [8]
COc1nc2nc3c(c(N)c2c(-c2ccccc2)c1C#N)CCCC3	12%	5000 nM	80 nM	5100 nM	–	–	–	–	–
N#Cc1cc2c(N)c3c(nc2nc1N1CCCC1)CCCC3	29%	160 nM	43 nM	5600 nM	–	–	–	–	–
COc1nc2nc3c(c(N)c2cc1C#N)CCCC3	23%	1600 nM	60 nM	9600 nM	inactive	65%	Active	49%	inactive
N#Cc1cc2c(N)c3c(nc2nc1N1CCCCC1)CCCC3	19%	1000 nM	25 nM	3600 nM	–	–	–	–	–
CN(C)c1nc2nc3c(c(N)c2c(-c2ccccc2)c1C#N)CCCC3	3%	4400 nM	90 nM	7500 nM	–	–	–	–	–
N#Cc1cc2c(N)c3c(nc2nc1Cl)CCN(Cc1ccccc1)C3	20%	> 100000 nM	350 nM	> 100000 nM	–	–	–	–	–
CCOc1nc2nc3c(c(N)c2cc1C#N)CCCC3	29%	1000 nM	50 nM	> 30000 nM	–	–	–	–	–
CC(=O)N[C@@H](CS)C(=O)O [ACETYLCYSTEINE]	33%	–	–	–	–	–	–	–	–
COc1nc2nc3c(c(N)c2cc1C#N)CN(Cc1ccccc1)CC3	11%	5000 nM	350 nM	> 100000 nM	–	–	–	–	–
N#Cc1cc2c(N)c3c(nc2nc1Cl)CCCC3	4%	> 100000 nM	5000 nM	> 30000 nM	–	–	–	–	–
CN(C)c1nc2nc3c(c(N)c2cc1C#N)CCCC3	6%	100 nM	14 nM	5200 nM	–	–	–	–	–
C#CCNc1nc2nc3c(c(N)c2cc1C#N)CCCC3	20%	1530 nM	30 nM	2600 nM	–	–	–	–	–
N#Cc1c(Cl)nc2nc3c(c(N)c2c1-c1ccccc1)CCCC3	8%	> 100000 nM	> 30000 nM	> 30000 nM	–	–	–	–	–

Reference: ChEMBL document CHEMBL1641430, “Cholinergic and neuroprotective drugs for the treatment of Alzheimer and neuronal vascular diseases. II. Synthesis, biological assessment, and molecular modelling of new tacrine analogues from highly substituted 2-aminopyridine-3-carbonitriles” (Bioorg Med Chem, 2011)
